In patent US20220151236A1, “NOVEL OXADIAZOLE COMPOUNDS FOR CONTROLLING OR PREVENTING PHYTOPATHOGENIC FUNGI” (PI INDUSTRIES LTD., priority 2019, published 2022):

Each compound was assayed on Phakopsora pachyrhizi (assay: Phakopsora pachyrhizi Test on Soybean (preventive activity, greenhouse)). Conditions: preventive spray on young Soybean plants, inoculated one day after treatment, rated 3, 7, 10 and 15 days after application, read-out: Efficacy (% control), disease severity compared to the untreated check.
Assay type: in vivo
Description: Compounds were dissolved in 2% dimethyl sulfoxide/acetone and then mixed with water containing an emulsifier to a calibrated spray volume of 50 mL. This 50 mL spray solution was poured into spray bottles for further applications. To test the preventive activity of compounds, healthy young Soybean plants raised in the greenhouse were sprayed with the active compound preparation at the stated application rates inside the spray cabinets using hollow cone nozzles. One day after treatment, the plants were inoculated with a spore suspension containing 2×10^5 Phakopsora pachyrhizi conidia. The inoculated plants were then kept in a greenhouse chamber at 22-24° C. temperature and 80-90% relative humidity for disease expression. A visual assessment of the compound's performance was carried out by rating the disease severity (0-100% scale) on treated plants 3, 7, 10 and 15 days after application. Efficacy (% control) of the compounds was calculated by comparing the disease rating in the treatment with the one of the untreated control. The sprayed plants were also assessed for plant compatibility by recording symptoms like necrosis, chlorosis and stunting.

| SMILES | pest or weed control at 500 ppm |
| --- | --- |
| COc1cccc(NC(=O)c2cn3ccc(-c4noc(C(F)(F)F)n4)cc3n2)c1 [Compound 1, N-(3-methoxyphenyl)-7-(5-(trifluoromethyl)-1,2,4-oxadiazol-3-yl)imidazo[1,2-a]pyridine-2-carboxamide] | ≥ 70% |
| Cc1ccc(NC(=O)c2cn3ccc(-c4noc(C(F)(F)F)n4)cc3n2)cc1 [Compound 3, N-(p-tolyl)-7-(5-(trifluoromethyl)-1,2,4-oxadiazol-3-yl)imidazo[1,2-a]pyridine-2-carboxamide] | ≥ 70% |
| O=C(Nc1cccc(F)c1)c1cn2ccc(-c3noc(C(F)(F)F)n3)cc2n1 [Compound 4, N-(3-fluorophenyl)-7-(5-(trifluoromethyl)-1,2,4-oxadiazol-3-yl)imidazo[1,2-a]pyridine-2-carboxamide] | ≥ 70% |
| O=C(Nc1ccc(F)cc1F)c1cn2ccc(-c3noc(C(F)(F)F)n3)cc2n1 [Compound 5, N-(2,4-difluorophenyl)-7-(5-(trifluoromethyl)-1,2,4-oxadiazol-3-yl)imidazo[1,2-a]pyridine-2-carboxamide] | ≥ 70% |
| O=C(Nc1ccc(Cl)cc1)c1cn2ccc(-c3noc(C(F)(F)F)n3)cc2n1 [Compound 6, N-(4-chlorophenyl)-7-(5-(trifluoromethyl)-1,2,4-oxadiazol-3-yl)imidazo[1,2-a]pyridine-2-carboxamide] | ≥ 70% |
| O=C(Nc1ccccc1F)c1cn2ccc(-c3noc(C(F)(F)F)n3)cc2n1 [Compound 7, N-(2-fluorophenyl)-7-(5-(trifluoromethyl)-1,2,4-oxadiazol-3-yl)imidazo[1,2-a]pyridine-2-carboxamide] | ≥ 70% |
| O=C(NCc1ccc(C(F)(F)F)cc1)c1cn2ccc(-c3noc(C(F)(F)F)n3)cc2n1 [Compound 8, 7-(5-(trifluoromethyl)-1,2,4-oxadiazol-3-yl)-N-(4-(trifluoromethyl)benzyl)imidazo[1,2-a]pyridine-2-carboxamide] | ≥ 70% |
| O=C(Nc1cccnc1)c1cn2ccc(-c3noc(C(F)(F)F)n3)cc2n1 [Compound 9, N-(pyridin-3-yl)-7-(5-(trifluoromethyl)-1,2,4-oxadiazol-3-yl)imidazo[1,2-a]pyridine-2-carboxamide] | ≥ 70% |
| O=C(NCc1ccccc1)c1cn2ccc(-c3noc(C(F)(F)F)n3)cc2n1 [Compound 10, N-benzyl-7-(5-(trifluoromethyl)-1,2,4-oxadiazol-3-yl)imidazo[1,2-a]pyridine-2-carboxamide] | ≥ 70% |
| O=C(Nc1ccncc1)c1cn2ccc(-c3noc(C(F)(F)F)n3)cc2n1 [Compound 11, N-(pyridin-4-yl)-7-(5-(trifluoromethyl)-1,2,4-oxadiazol-3-yl)imidazo[1,2-a]pyridine-2-carboxamide] | ≥ 70% |
| CNC(=O)c1cn2ccc(-c3noc(C(F)(F)F)n3)cc2n1 [Compound 13, N-methyl-7-(5-(trifluoromethyl)-1,2,4-oxadiazol-3-yl)imidazo[1,2-a]pyridine-2-carboxamide] | ≥ 70% |
| CN(CCOc1ccccc1)C(=O)c1cn2ccc(-c3noc(C(F)(F)F)n3)cc2n1 [Compound 14, N-methyl-N-(2-phenoxyethyl)-7-(5-(trifluoromethyl)-1,2,4-oxadiazol-3-yl)imidazo[1,2-a]pyridine-2-carboxamide] | ≥ 70% |
| N#Cc1ccc(NC(=O)c2cn3ccc(-c4noc(C(F)(F)F)n4)cc3n2)cc1 [Compound 15, N-(4-cyanophenyl)-7-(5-(trifluoromethyl)-1,2,4-oxadiazol-3-yl)imidazo[1,2-a]pyridine-2-carboxamide] | ≥ 70% |
| COc1cccc(NC(=O)c2cn3cc(-c4noc(C(F)(F)F)n4)ccc3n2)c1 [Compound 16, N-(3-methoxyphenyl)-6-(5-(trifluoromethyl)-1,2,4-oxadiazol-3-yl)imidazo[1,2-a]pyridine-2-carboxamide] | ≥ 70% |
| O=C(Nc1ccc(F)cc1F)c1cn2cc(-c3noc(C(F)(F)F)n3)ccc2n1 [Compound 17, N-(2,4-difluorophenyl)-6-(5-(trifluoromethyl)-1,2,4-oxadiazol-3-yl)imidazo[1,2-a]pyridine-2-carboxamide] | ≥ 70% |
| O=C(Nc1ccc(Cl)cc1)c1cn2cc(-c3noc(C(F)(F)F)n3)ccc2n1 [Compound 18, N-(4-chlorophenyl)-6-(5-(trifluoromethyl)-1,2,4-oxadiazol-3-yl)imidazo[1,2-a]pyridine-2-carboxamide] | ≥ 70% |
| Cc1ccc(NC(=O)c2cn3cc(-c4noc(C(F)(F)F)n4)ccc3n2)cc1 [Compound 19, N-(p-tolyl)-6-(5-(trifluoromethyl)-1,2,4-oxadiazol-3-yl)imidazo[1,2-a]pyridine-2-carboxamide] | ≥ 70% |

| SMILES | pest or weed control at 500 ppm |
| --- | --- |
| O=C(Nc1ccccc1F)c1cn2cc(-c3noc(C(F)(F)F)n3)ccc2n1 [Compound 20, N-(2-fluorophenyl)-6-(5-(trifluoromethyl)-1,2,4-oxadiazol-3-yl)imidazo[1,2-a]pyridine-2-carboxamide] | ≥ 70% |
| CNC(=O)c1cn2cc(-c3noc(C(F)(F)F)n3)ccc2n1 [Compound 21, N-methyl-6-(5-(trifluoromethyl)-1,2,4-oxadiazol-3-yl)imidazo[1,2-a]pyridine-2-carboxamide] | ≥ 70% |
| COc1ccc(NC(=O)c2cn3cc(-c4noc(C(F)(F)F)n4)ccc3n2)cc1 [Compound 22, N-(4-methoxyphenyl)-6-(5-(trifluoromethyl)-1,2,4-oxadiazol-3-yl)imidazo[1,2-a]pyridine-2-carboxamide] | ≥ 70% |
| O=C(NCc1ccccc1)c1cn2cc(-c3noc(C(F)(F)F)n3)ccc2n1 [Compound 23, N-benzyl-6-(5-(trifluoromethyl)-1,2,4-oxadiazol-3-yl)imidazo[1,2-a]pyridine-2-carboxamide] | ≥ 70% |
| O=C(Nc1cccc(F)c1)c1cn2cc(-c3noc(C(F)(F)F)n3)ccc2n1 [Compound 24, N-(3-fluorophenyl)-6-(5-(trifluoromethyl)-1,2,4-oxadiazol-3-yl)imidazo[1,2-a]pyridine-2-carboxamide] | ≥ 70% |
| CN(C)C(=O)c1cn2cc(-c3noc(C(F)(F)F)n3)ccc2n1 [Compound 25, N,N-dimethyl-6-(5-(trifluoromethyl)-1,2,4-oxadiazol-3-yl)imidazo[1,2-a]pyridine-2-carboxamide] | ≥ 70% |
| O=C(Nc1ccc(Cl)cc1F)c1cn2cc(-c3noc(C(F)(F)F)n3)ccc2n1 [Compound 26, N-(4-chloro-2-fluorophenyl)-6-(5-(trifluoromethyl)-1,2,4-oxadiazol-3-yl)imidazo[1,2-a]pyridine-2-carboxamide] | ≥ 70% |
| N#Cc1ccc(NC(=O)c2cn3cc(-c4noc(C(F)(F)F)n4)ccc3n2)cc1 [Compound 27, N-(4-cyanophenyl)-6-(5-(trifluoromethyl)-1,2,4-oxadiazol-3-yl)imidazo[1,2-a]pyridine-2-carboxamide] | ≥ 70% |
| COc1ccccc1NC(=O)c1cn2cc(-c3noc(C(F)(F)F)n3)ccc2n1 [Compound 28, N-(2-methoxyphenyl)-6-(5-(trifluoromethyl)-1,2,4-oxadiazol-3-yl)imidazo[1,2-a]pyridine-2-carboxamide] | ≥ 70% |
| O=C(Nc1cccnc1)c1cn2cc(-c3noc(C(F)(F)F)n3)ccc2n1 [Compound 29, N-(pyridin-3-yl)-6-(5-(trifluoromethyl)-1,2,4-oxadiazol-3-yl)imidazo[1,2-a]pyridine-2-carboxamide] | ≥ 70% |
| O=C(Nc1c(F)cccc1F)c1cn2cc(-c3noc(C(F)(F)F)n3)ccc2n1 [Compound 30, N-(2,6-difluorophenyl)-6-(5-(trifluoromethyl)-1,2,4-oxadiazol-3-yl)imidazo[1,2-a]pyridine-2-carboxamide] | ≥ 70% |
| O=C(NCc1cccc(F)c1)c1cn2cc(-c3noc(C(F)(F)F)n3)ccc2n1 [Compound 31, N-(3-fluorobenzyl)-6-(5-(trifluoromethyl)-1,2,4-oxadiazol-3-yl)imidazo[1,2-a]pyridine-2-carboxamide] | ≥ 70% |
| O=C(Nc1ccncc1)c1cn2cc(-c3noc(C(F)(F)F)n3)ccc2n1 [Compound 32, N-(pyridin-4-yl)-6-(5-(trifluoromethyl)-1,2,4-oxadiazol-3-yl)imidazo[1,2-a]pyridine-2-carboxamide] | ≥ 70% |
| COCCNC(=O)c1cn2ccc(-c3noc(C(F)(F)F)n3)cc2n1 [Compound 34, N-(2-methoxyethyl)-7-(5-(trifluoromethyl)-1,2,4-oxadiazol-3-yl)imidazo[1,2-a]pyridine-2-carboxamide] | ≥ 70% |
| CC(C)CNC(=O)c1cn2ccc(-c3noc(C(F)(F)F)n3)cc2n1 [Compound 35, N-isobutyl-7-(5-(trifluoromethyl)-1,2,4-oxadiazol-3-yl)imidazo[1,2-a]pyridine-2-carboxamide] | ≥ 70% |
| CC(C)(C)CNC(=O)c1cn2ccc(-c3noc(C(F)(F)F)n3)cc2n1 [Compound 36, N-neopentyl-7-(5-(trifluoromethyl)-1,2,4-oxadiazol-3-yl)imidazo[1,2-a]pyridine-2-carboxamide] | ≥ 70% |
| O=C(NCc1ccc(Cl)cc1)c1cn2ccc(-c3noc(C(F)(F)F)n3)cc2n1 [Compound 38, N-(4-chlorobenzyl)-7-(5-(trifluoromethyl)-1,2,4-oxadiazol-3-yl)imidazo[1,2-a]pyridine-2-carboxamide] | ≥ 70% |
